The target of one data set is T1, mouse DGAT1 (Mus musculus, UniProt Q9Z2A7).
T1 construct: made in house; host or cells: insect cells (High Five, Sf9, Sf21, etc.), baculovirus expression system (Invitrogen)
T1 sequence (Q9Z2A7 1-498): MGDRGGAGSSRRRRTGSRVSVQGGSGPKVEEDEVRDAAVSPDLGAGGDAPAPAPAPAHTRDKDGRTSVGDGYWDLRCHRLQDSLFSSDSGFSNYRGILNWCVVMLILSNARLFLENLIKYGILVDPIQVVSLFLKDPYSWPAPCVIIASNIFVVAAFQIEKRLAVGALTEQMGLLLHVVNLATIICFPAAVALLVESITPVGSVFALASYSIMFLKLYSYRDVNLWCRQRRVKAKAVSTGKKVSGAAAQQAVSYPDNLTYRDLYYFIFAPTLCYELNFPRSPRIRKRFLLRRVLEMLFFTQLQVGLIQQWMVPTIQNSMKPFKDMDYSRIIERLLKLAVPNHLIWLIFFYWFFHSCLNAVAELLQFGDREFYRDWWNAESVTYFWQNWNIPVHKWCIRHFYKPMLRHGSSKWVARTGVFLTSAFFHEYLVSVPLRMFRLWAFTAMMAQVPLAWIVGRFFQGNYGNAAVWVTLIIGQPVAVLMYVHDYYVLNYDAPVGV
The experiment in a line: DGAT1 inhibitory effect test (microsome fraction, [14C]-oleoyl-CoA, triglyceride radioactivity by TLC). Format: biochemical. As to conditions: 0.5 h; concentration of the test compound 0.1 μg/ml; mouse DGAT1 microsomes, 23° C., 30 minutes; read-out: Inhibitory ratio. In short, it runs like this:
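Inhibition was scored from radiolabelled triglyceride separated by TLC, relative to vehicle and net of a 0-min background. The reaction ran for 30 min at room temperature (23 °C) in Tris-HCl pH 8.0 with MgCl2, BSA and Triton X-100. Substrates were 30 μM [14C]-oleoyl-CoA and 0.5 mM dioleoylglycerol, with mouse DGAT1 microsomes from baculovirus-infected insect cells as enzyme.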

By melting point is commonly meant the temperature, or range, at which the solid turns liquid.

`CCOc1ccccc1NC(=O)Nc1ccc(N2CCN(C(=O)Nc3c(C)cccc3C)CC2)cc1` [Example 116, 4-{4-[3-(2-ethoxy-phenyl)-ureido]-phenyl}-piperazine-1-carboxylic acid (2,6-dimethyl-phenyl)-amide] came in with a melting point of 204 to 205 °C. Also, on mouse DGAT1, the inhibition at 0.1 µg/mL is at least 50%.
The corresponding values for `CCOc1ccccc1NC(=O)Nc1ccc(N2CCN(C(=O)Nc3c(F)cccc3C(F)(F)F)CC2)cc1` [Example 117, 4-{4-[3-(2-ethoxy-phenyl)-ureido]-phenyl}-piperazine-1-carboxylic acid (2-fluoro-6-trifluoromethyl-phenyl)-amide] are 139 to 141 °C and at least 50%.
In turn, `CCOc1ccc(C)cc1NC(=O)Nc1ccc(N2CCN(C(=O)Nc3c(C)cccc3C)CC2)cc1` [Example 118, 4-{4-[3-(2-ethoxy-5-methyl-phenyl)-ureido]-phenyl}-piperazine-1-carboxylic acid (2,6-dimethyl-phenyl)-amide] returned a melting point of 222 to 225 °C. Further, the inhibition at 0.1 µg/mL at mouse DGAT1 was at least 50%.
The corresponding values for `CCOc1ccc(C)cc1NC(=O)Nc1ccc(N2CCN(C(=O)Nc3c(F)cccc3C(F)(F)F)CC2)cc1` [Example 119, 4-{4-[3-(2-ethoxy-5-methyl-phenyl)-ureido]-phenyl}-piperazine-1-carboxylic acid (2-fluoro-6-trifluoromethyl-phenyl)-amide] are 144 to 146 °C and at least 50%.
The corresponding values for `CCOc1ccc(C)cc1NC(=O)Nc1ccc(N2CCN(C(=O)Nc3ccc(C)cc3Cl)CC2)cc1` [Example 120, 4-{4-[3-(2-ethoxy-5-methyl-phenyl)-ureido]-phenyl}-piperazine-1-carboxylic acid (2-chloro-4-methyl-phenyl)-amide] are 119 to 122 °C and at least 50%.
The like results for `CCOc1ccccc1NC(=O)Nc1ccc(N2CCN(C(=O)Nc3ccc(C)cc3Cl)CC2)cc1` [Example 121, 4-{4-[3-(2-ethoxy-phenyl)-ureido]-phenyl}-piperazine-1-carboxylic acid (2-chloro-4-methyl-phenyl)-amide] were, in that order, 179 to 181 °C and at least 50%.
Consider `CCOc1ccc(F)cc1NC(=O)Nc1ccc(N2CCN(C(=O)Nc3ccc(C)cc3Cl)CC2)cc1` [Example 122, 4-{4-[3-(2-ethoxy-5-fluoro-phenyl)-ureido]-phenyl}-piperazine-1-carboxylic acid (2-chloro-4-methyl-phenyl)-amide], for which the melting point is 155 to 157 °C. Further, the inhibition at 0.1 µg/mL at mouse DGAT1 was at least 50%.
For the compound `COc1ccc(F)cc1NC(=O)Nc1ccc(N2CCN(C(=O)Nc3ccc(C)cc3Cl)CC2)cc1` [Example 123, 4-{4-[3-(5-fluoro-2-methoxy-phenyl)-ureido]-phenyl}-piperazine-1-carboxylic acid (2-chloro-4-methyl-phenyl)-amide], the melting point lay within 233 to 235 °C. For the same compound, the inhibition at 0.1 µg/mL on mouse DGAT1 is at least 50%.
Consider `COc1ccccc1NC(=O)Nc1ccc(N2CCN(C(=O)Nc3c(C)cccc3Cl)CC2)cc1` [Example 124, 4-{4-[3-(2-methoxy-phenyl)-ureido]-phenyl}-piperazine-1-carboxylic acid (2-chloro-6-methyl-phenyl)-amide], for which the melting point fell in the range of 245 to 247 °C. Besides, the inhibition at 0.1 µg/mL at mouse DGAT1 is at least 50%.
The like results for `Cc1cccc(Cl)c1NC(=O)N1CCN(c2ccc(NC(=O)Nc3ccccc3F)cc2)CC1` [Example 125, 4-{4-[3-(2-fluoro-phenyl)-ureido]-phenyl}-piperazine-1-carboxylic acid (2-chloro-6-methyl-phenyl)-amide] were, in that order, 232 to 234 °C and at least 50%.
The corresponding values for `Cc1cccc(Cl)c1NC(=O)N1CCN(c2ccc(NC(=O)Nc3ccccc3Cl)cc2)CC1` [Example 126, 4-{4-[3-(2-chloro-phenyl)-ureido]-phenyl}-piperazine-1-carboxylic acid (2-chloro-6-methyl-phenyl)-amide] are > 260 °C (dec.) and at least 50%.
The like results for `Cc1ccccc1NC(=O)Nc1ccc(N2CCN(C(=O)Nc3c(C)cccc3Cl)CC2)cc1` [Example 127, 4-[4-(3-o-tolyl-ureido)-phenyl]-piperazine-1-carboxylic acid (2-chloro-6-methyl-phenyl)-amide] were, in that order, > 260 °C (dec.) and at least 50%.
For `CCc1ccccc1NC(=O)Nc1ccc(N2CCN(C(=O)Nc3c(C)cccc3Cl)CC2)cc1` [Example 128, 4-{4-[3-(2-ethyl-phenyl)-ureido]-phenyl}-piperazine-1-carboxylic acid (2-chloro-6-methyl-phenyl)-amide], the melting point fell in the range of 217 to 219 °C. Also, the inhibition at 0.1 µg/mL on mouse DGAT1 is at least 50%.
Compound `COc1ccc(C)cc1NC(=O)Nc1ccc(N2CCN(C(=O)Nc3ccc(Br)cc3Cl)CC2)cc1` [Example 129, 4-{4-[3-(2-methoxy-5-methyl-phenyl)-ureido]-phenyl}-piperazine-1-carboxylic acid (4-bromo-2-chloro-phenyl)-amide] yielded a melting point of 140 to 142 °C. The inhibition at 0.1 µg/mL at mouse DGAT1 is at least 50%.
The corresponding values for `CCCc1ccccc1NC(=O)Nc1ccc(N2CCN(C(=O)Nc3c(C)cccc3Cl)CC2)cc1` [Example 130, 4-{4-[3-(2-propyl-phenyl)-ureido]-phenyl}-piperazine-1-carboxylic acid (2-chloro-6-methyl-phenyl)-amide] are 216 to 217 °C and at least 50%.
The corresponding values for `Cc1ccc(C)c(NC(=O)Nc2ccc(N3CCN(C(=O)Nc4c(C)cccc4Cl)CC3)cc2)c1` [Example 131, 4-{4-[3-(2,5-dimethyl-phenyl)-ureido]-phenyl}-piperazine-1-carboxylic acid (2-chloro-6-methyl-phenyl)-amide] are 251 to 253 °C and at least 50%.
The like results for `COc1ccc(Cl)cc1NC(=O)Nc1ccc(N2CCN(C(=O)Nc3c(Cl)cccc3Cl)CC2)cc1` [Example 132, 4-{4-[3-(5-chloro-2-methoxy-phenyl)-ureido]-phenyl}-piperazine-1-carboxylic acid (2,6-dichloro-phenyl)-amide] were, in that order, 189 to 190 °C and at least 50%.
Compound `CCOc1ccccc1NC(=O)Nc1ccc(N2CCN(C(=O)Nc3c(Cl)cccc3Cl)CC2)cc1` [Example 133, 4-{4-[3-(2-ethoxy-phenyl)-ureido]-phenyl}-piperazine-1-carboxylic acid (2,6-dichloro-phenyl)-amide] displayed a melting point of 164 to 166 °C. The inhibition at 0.1 µg/mL on mouse DGAT1 was at least 50%.
The corresponding values for `CCOc1ccc(C)cc1NC(=O)Nc1ccc(N2CCN(C(=O)Nc3c(Cl)cccc3Cl)CC2)cc1` [Example 134, 4-{4-[3-(2-ethoxy-5-methyl-phenyl)-ureido]-phenyl}-piperazine-1-carboxylic acid (2,6-dichloro-phenyl)-amide] are 159 to 161 °C and at least 50%.
The like results for `CCOc1ccc(Cl)cc1NC(=O)Nc1ccc(N2CCN(C(=O)Nc3c(Cl)cccc3Cl)CC2)cc1` [Example 135, 4-{4-[3-(5-chloro-2-ethoxy-phenyl)-ureido]-phenyl}-piperazine-1-carboxylic acid (2,6-dichloro-phenyl)-amide] were, in that order, 135 to 137 °C and at least 50%.
The like results for `COc1ccc(C)cc1NC(=O)Nc1ccc(N2CCN(C(=O)Nc3ccccc3C(F)(F)F)CC2)nc1` [Example 137, 4-{5-[3-(2-methoxy-5-methyl-phenyl)-ureido]-pyridin-2-yl}-piperazine-1-carboxylic acid (2-trifluoromethyl-phenyl)-amide] were, in that order, 213 to 214 °C and at least 50%.
In the case of `COc1ccc(C)cc1NC(=O)Nc1ccc(N2CCN(C(=O)Nc3c(C)cccc3C)CC2)nc1` [Example 138, 4-{5-[3-(2-methoxy-5-methyl-phenyl)-ureido]-pyridin-2-yl}-piperazine-1-carboxylic acid (2,6-dimethyl-phenyl)-amide], the melting point lay within 221 to 223 °C. In addition, the inhibition at 0.1 µg/mL on mouse DGAT1 was at least 50%.
The like results for `COc1ccc(C)cc1NC(=O)Nc1ccc(N2CCN(C(=O)Nc3c(F)cccc3C(F)(F)F)CC2)nc1` [Example 139, 4-{5-[3-(2-methoxy-5-methyl-phenyl)-ureido]-pyridin-2-yl}-piperazine-1-carboxylic acid (2-fluoro-6-trifluoromethyl-phenyl)-amide] were, in that order, 221 to 222 °C and at least 50%.
The like results for `COc1ccc(C)cc1NC(=O)Nc1ccc(N2CCN(C(=O)Nc3c(Cl)cccc3Cl)CC2)nc1` [Example 140, 4-{5-[3-(2-methoxy-5-methyl-phenyl)-ureido]-pyridin-2-yl}-piperazine-1-carboxylic acid (2,6-dichloro-phenyl)-amide] were, in that order, 222 to 224 °C and at least 50%.

The values are drawn from patent publication US20070249620A1, “Urea Derivative” (priority 2004, published 2007).
